Patent US8592422B2, “Bicyclic triazole and pyrazole lactams as allosteric modulators of mGluR5 receptors” (Vanderbilt University, priority 2010, dated 2013)
Read-outs that look alike come from different tables or passages of the source.

Molecular target: T1, human mGluR5a receptor (Homo sapiens, UniProt P41594)
T1 construct: cDNA subcloned into pcDNA3.1(-)
Assay: Cell-based functional Ca2+ mobilization assay (FDSS), potentiation of glutamate EC20 response
Settings: for pEC50 / EC50: HEK cells transfected with human mGluR5 (H10H or H12H), in presence of EC20 glutamate; for Emax (%) / Emax: maximum % effect in concentration-response curve, as percent of response to maximally effective glutamate
In short: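 HEK293A cells stably expressing human mGluR5a (H10H or H12H clones), plated overnight in glutamate-glutamine-free medium, loaded with Ca2+-sensitive dye (e.g. Fluo-4) and read on FDSS.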

T1 sequence (P41594 21-1180 isoform P41594-2 limits assumed): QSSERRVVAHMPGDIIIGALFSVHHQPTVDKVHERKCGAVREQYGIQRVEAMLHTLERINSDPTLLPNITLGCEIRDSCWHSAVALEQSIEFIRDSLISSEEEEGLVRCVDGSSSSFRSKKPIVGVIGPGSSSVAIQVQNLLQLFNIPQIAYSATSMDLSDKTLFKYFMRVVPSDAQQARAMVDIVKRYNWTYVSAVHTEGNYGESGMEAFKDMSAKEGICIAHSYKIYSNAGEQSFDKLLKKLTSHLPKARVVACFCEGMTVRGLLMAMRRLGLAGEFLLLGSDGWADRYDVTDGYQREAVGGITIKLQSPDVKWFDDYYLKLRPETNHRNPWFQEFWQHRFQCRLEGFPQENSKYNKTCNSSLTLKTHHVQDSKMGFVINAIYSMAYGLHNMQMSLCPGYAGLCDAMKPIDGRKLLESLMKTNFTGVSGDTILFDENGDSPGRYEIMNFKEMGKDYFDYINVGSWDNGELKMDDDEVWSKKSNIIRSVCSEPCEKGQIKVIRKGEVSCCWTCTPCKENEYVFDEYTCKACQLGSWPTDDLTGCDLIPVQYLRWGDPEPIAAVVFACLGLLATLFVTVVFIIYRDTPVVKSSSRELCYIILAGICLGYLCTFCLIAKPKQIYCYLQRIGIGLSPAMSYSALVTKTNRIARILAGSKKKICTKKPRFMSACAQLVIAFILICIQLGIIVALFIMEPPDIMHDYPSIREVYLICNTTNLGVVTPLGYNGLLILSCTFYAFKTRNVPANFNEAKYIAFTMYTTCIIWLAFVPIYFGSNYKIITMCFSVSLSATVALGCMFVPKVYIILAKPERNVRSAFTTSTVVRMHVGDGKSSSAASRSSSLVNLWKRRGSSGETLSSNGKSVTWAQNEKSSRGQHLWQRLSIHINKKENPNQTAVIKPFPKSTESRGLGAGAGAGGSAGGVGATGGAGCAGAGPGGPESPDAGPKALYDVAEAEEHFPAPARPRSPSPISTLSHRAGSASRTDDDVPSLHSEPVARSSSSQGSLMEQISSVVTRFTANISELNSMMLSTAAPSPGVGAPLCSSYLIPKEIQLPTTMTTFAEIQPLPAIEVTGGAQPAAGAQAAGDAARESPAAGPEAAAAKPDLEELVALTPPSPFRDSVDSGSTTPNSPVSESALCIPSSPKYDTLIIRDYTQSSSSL

| Structure (SMILES) | pEC50 | EC50 (read-out: EC50) [nM] | Emax (%) | Emax [%] | EC50 (read-out: pEC50 (converted)) [nM] |
| --- | --- | --- | --- | --- | --- |
| COCc1cc(F)ccc1N1CCn2nc(COc3ccccc3)cc2C1=O [Example 304] | 6.72 | 190 | 77 | – | – |
| CN(C)c1nc(N2CCn3nc(COc4ccccc4)cc3C2=O)ccc1F [Example 305] | 7.40 | 40 | 71 | – | – |
| CNc1cccc(OCc2cc3n(n2)CCN(c2ccc(F)cc2)C3=O)n1 [Example 311] | <4.52 | > 30200 | 28 | – | – |
| CN(C)c1cccc(N2CCn3nc(COc4ccccn4)cc3C2=O)n1 [Example 313] | 6.75 | 178 | 74 | – | – |
| CN(C)c1ccc(F)c(N2CCn3nc(COc4ccccn4)cc3C2=O)n1 [Example 314] | 6.69 | 204 | 70 | – | – |
| CN(C)c1cccc(N2CCn3nc(COc4ccc(F)cc4)cc3C2=O)n1 [Example 317] | 7.38 | 42 | 66 | – | – |
| Cn1cc(N2CCn3nc(COc4ccccc4)cc3C2=O)cn1 [Example 320] | <5.00 | > 10000 | 61 | – | – |
| Cc1[nH]ncc1N1CCn2nc(COc3ccccc3)cc2C1=O [Example 322] | <5.00 | > 10000 | 44 | – | – |
| O=C1c2cc(COc3ccccc3)nn2CCN1c1nc2ccccc2o1 [Example 324] | 7.24 | 58 | 71 | – | – |
| COc1cc(N2CCn3nc(COc4ccccc4)cc3C2=O)ncn1 [Example 351] | 6.59 | 260 | 66 | – | – |
| Cn1cncc1N1CCn2nc(COc3ccccc3)cc2C1=O [Example 352] | <5.00 | > 10000 | 55 | – | – |
| O=C1c2cc(COc3ccccc3)nn2CCN1c1cccc(=O)[nH]1 [Example 359] | – | 420 | – | 64 | – |
| O=C1c2cc(COc3ccccc3)nn2CCN1c1ccc2cccnc2c1 [Example 360] | – | 190 | – | 66 | – |
| O=C1c2cc(COc3ccccc3)nn2CCN1c1ccc2scnc2c1 [Example 361] | 7.14 | 72 | 66 | – | – |
| O=C1c2cc(COc3ccccc3)nn2CCN1c1cnc2ccccc2c1 [Example 362] | – | 54 | – | 71 | – |
| O=C1c2cc(COc3ccccc3)nn2CCN1c1ccc2ncncc2c1 [Example 363] | – | 1300 | – | 65 | – |
| O=C1c2cc(COc3ccccc3)nn2CCN1c1ccc2nccc(Cl)c2c1 [Example 364] | 7.34 | 46 | 75 | – | – |
| O=C1c2cc(COc3ccccc3)nn2CCN1c1cccc(Cl)n1 [Example 365] | 7.40 | 40 | 73 | – | – |
| Cn1cc2ccc(N3CCn4nc(COc5ccccc5)cc4C3=O)cc2n1 [Example 366] | 6.07 | 850 | 62 | – | – |
| Cc1nc2cc(N3CCn4nc(COc5ccccc5)cc4C3=O)ccc2s1 [Example 367] | 7.06 | 88 | 60 | – | – |
| O=C1c2cc(COc3ccccc3)nn2CCN1c1ccc(F)c2ccccc12 [Example 368] | – | – | – | 69 | 12.9 |
| Cc1ccc2ccc(N3CCn4nc(COc5ccccc5)cc4C3=O)cc2n1 [Example 369] | 6.64 | 230 | 68 | – | – |
| O=C1c2cc(COc3ccccc3)nn2CCN1c1cnc2cccnn12 [Example 370] | – | 1100 | – | 68 | – |
| O=C1c2cc(COc3ccccc3)nn2CCN1c1ccc2nsnc2c1 [Example 371] | 7.49 | 32 | 68 | – | – |
| O=C1c2cc(COc3ccccc3)nn2CCN1c1cc(F)cc2cccnc12 [Example 372] | – | 130 | – | 67 | – |
| O=C1c2cc(COc3ccccc3)nn2CCN1c1ccc2nccnc2n1 [Example 373] | – | > 10000 | – | 55 | – |
| O=C1c2cc(COc3ccccc3)nn2CCN1c1cnc2cnccn12 [Example 374] | – | 3400 | – | 72 | – |
| O=C1c2cc(COc3ccccc3)nn2CCN1c1ccc2nonc2c1 [Example 375] | 7.14 | 72 | 70 | – | – |
| O=C1c2cc(COc3ccccc3O)nn2CCN1c1ccc(F)cn1 [Example 377] | <5.00 | > 10000 | 71 | – | – |
| O=c1[nH]ccn2nc(COc3ccccc3)cc12 [Example 378] | <4.52 | > 30200 | 29 | – | – |
